Like-named read-outs stand apart in the source and are kept apart here.
Key:
[1] = system: triglycerides, glucose, cholesterol, HDL-cholesterol, LDL-cholesterol level; experiment: Example 2 section F: lipid parameters and glucose level (triglycerides, glucose, cholesterol, HDL-cholesterol, LDL-cholesterol) at 15 mg and 20 mg daily doses; type: in vivo, human
Protocol: In order to better assess the potential for increasing the daily dose beyond the minimum effective dose of 15 mg estetrol monohydrate daily, a number of parameters were followed in a study where estetrol monohydrate was administered at the increased dose of 20 mg per day.
1. Triglycerides Level (mmol/L)
2. Glucose Level (mmol/L)
3. Cholesterol Level (mmol/L)
4. HDL-Cholesterol Level (mmol/L)
5. LDL-Cholesterol Level (mmol/L)

post-menopausal women [2] = experiment: Example 3: menopause-specific Quality of Life (MENQOL) questionnaire; type: in vivo, human; conditions: compared to placebo treatment
post-menopausal women [3] = experiment: Example 2: patients leaving the study; type: in vivo, human
Text: 3. Patients Leaving the Study

post-menopausal women [4] = experiment: Example 3 (15 mg, 20 mg E4 monohydrate or placebo): weekly frequency of moderate to severe VMS and responder proportions; type: in vivo, human
Protocol: A further clinical study was designed to evaluate the effect of 15 or 20 mg estetrol (E4) monohydrate, or placebo on the severity and frequency of vasomotor symptoms (VMS) and the safety of E4 20 mg. The inclusion and exclusion criteria as described for Example 2 were maintained for the present Example (i.e. Example 3).
• 1. Mean change in weekly frequency of moderate to severe vasomotor symptoms (VMS) from Baseline to Week 4 (Efficacy Study Part) [Time Frame: Baseline and Week 4]: • The weekly frequency of moderate to severe VMS at Baseline and Week 4 is defined as the total number (sum) of all recorded moderate to severe VMS experienced during the last 7 consecutive days prior randomization for Baseline and at Week 4. Mean change=mean weekly frequency at Week 4-mean weekly frequency at Baseline. • 2. Mean change in weekly frequency of moderate to severe vasomotor symptoms (VMS) from Baseline to Week 12 (Efficacy Study Part) [Time Frame: Baseline and Week 12] • The weekly frequency of moderate to severe VMS at Baseline and Week 12 is defined as the total number (sum) of all recorded moderate to severe VMS experienced during the last 7 consecutive days prior randomization for Baseline and at Week 12. Mean change=mean weekly frequency at Week 12-mean weekly frequency at Baseline. • 3. […]

[5] = cited from earlier work

## C[C@]12CC[C@@H]3c4ccc(O)cc4CC[C@H]3[C@@H]1[C@@H](O)[C@@H](O)[C@@H]2O [E4 monohydrate, estetrol monohydrate]
[1]; 15 mg daily
  Cholesterol level, Baseline, Mean: 5.51 mmol/L
  Cholesterol level, Baseline, Median: 5.62 mmol/L
  Glucose level, Baseline, Mean: 4.77 mmol/L
  Glucose level, Baseline, Median: 4.72 mmol/L
  HDL-Cholesterol level, Baseline, Mean: 1.73 mmol/L
  HDL-Cholesterol level, Baseline, Median: 1.66 mmol/L
  LDL-Cholesterol level, Baseline, Mean: 3.05 mmol/L
  LDL-Cholesterol level, Baseline, Median: 3.22 mmol/L
  Triglycerides level, Baseline, Mean: 1.32 mmol/L
  Triglycerides level, Baseline, Median: 1.21 mmol/L
[1]; 15 mg daily, after 12 weeks
  Cholesterol level, End Of Treatment Actual Change from Baseline, Mean: 0.12 mmol/L
  Cholesterol level, End Of Treatment Actual Change from Baseline, Median: 0.08 mmol/L
  Cholesterol level, End Of Treatment Actual Value, Mean: 5.63 mmol/L
  Cholesterol level, End Of Treatment Actual Value, Median: 5.71 mmol/L
  Glucose level, End Of Treatment Actual Change from Baseline, Mean: 0.02 mmol/L
  Glucose level, End Of Treatment Actual Change from Baseline, Median: 0.05 mmol/L
  Glucose level, End Of Treatment Actual Value, Mean: 4.79 mmol/L
  Glucose level, End Of Treatment Actual Value, Median: 4.77 mmol/L
  HDL-Cholesterol level, End Of Treatment Actual Change from Baseline, Mean: 0.16 mmol/L
  HDL-Cholesterol level, End Of Treatment Actual Change from Baseline, Median: 0.17 mmol/L
  HDL-Cholesterol level, End Of Treatment Actual Value, Mean: 1.89 mmol/L
  HDL-Cholesterol level, End Of Treatment Actual Value, Median: 1.81 mmol/L
  LDL-Cholesterol level, End Of Treatment Actual Change from Baseline, Mean: 0.09 mmol/L
  LDL-Cholesterol level, End Of Treatment Actual Change from Baseline, Median: 0.10 mmol/L
  LDL-Cholesterol level, End Of Treatment Actual Value, Mean: 3.14 mmol/L
  LDL-Cholesterol level, End Of Treatment Actual Value, Median: 3.25 mmol/L
  Triglycerides level, End Of Treatment Actual Change from Baseline, Mean: 0.20 mmol/L
  Triglycerides level, End Of Treatment Actual Change from Baseline, Median: 0.15 mmol/L
  Triglycerides level, End Of Treatment Actual Value, Mean: 1.61 mmol/L
  Triglycerides level, End Of Treatment Actual Value, Median: 1.40 mmol/L
[1]; 20 mg daily
  Cholesterol level, Baseline, Mean: 6.27 mmol/L
  Cholesterol level, Baseline, Median: 6.25 mmol/L
  Glucose level, Baseline, Mean: 5.53 mmol/L
  Glucose level, Baseline, Median: 5.60 mmol/L
  HDL-Cholesterol level, Baseline, Mean: 1.68 mmol/L
  HDL-Cholesterol level, Baseline, Median: 1.60 mmol/L
  LDL-Cholesterol level, Baseline, Mean: 3.94 mmol/L
  LDL-Cholesterol level, Baseline, Median: 4.00 mmol/L
  Triglycerides level, Baseline, Mean: 1.43 mmol/L
  Triglycerides level, Baseline, Median: 1.40 mmol/L
[1]; 20 mg daily dose in place of 15 mg daily dose
  lipid parameters and glucose level: do not behave significantly differently
[1]; 20 mg daily, after 28 days
  Cholesterol level, End Of Treatment Actual Change from Baseline, Mean: -0.18 mmol/L
  Cholesterol level, End Of Treatment Actual Change from Baseline, Median: -0.20 mmol/L
  Cholesterol level, End Of Treatment Actual Value, Mean: 6.09 mmol/L
  Cholesterol level, End Of Treatment Actual Value, Median: 6.10 mmol/L
  Glucose level, End Of Treatment Actual Change from Baseline, Mean: -0.10 mmol/L
  Glucose level, End Of Treatment Actual Change from Baseline, Median: -0.15 mmol/L
  Glucose level, End Of Treatment Actual Value, Mean: 5.44 mmol/L
  Glucose level, End Of Treatment Actual Value, Median: 5.60 mmol/L
  HDL-Cholesterol level, End Of Treatment Actual Change from Baseline, Mean: 0.29 mmol/L
  HDL-Cholesterol level, End Of Treatment Actual Change from Baseline, Median: 0.35 mmol/L
  HDL-Cholesterol level, End Of Treatment Actual Value, Mean: 1.97 mmol/L
  HDL-Cholesterol level, End Of Treatment Actual Value, Median: 1.90 mmol/L
  LDL-Cholesterol level, End Of Treatment Actual Change from Baseline, Mean: -0.51 mmol/L
  LDL-Cholesterol level, End Of Treatment Actual Change from Baseline, Median: -0.65 mmol/L
  LDL-Cholesterol level, End Of Treatment Actual Value, Mean: 3.43 mmol/L
  LDL-Cholesterol level, End Of Treatment Actual Value, Median: 3.45 mmol/L
  Triglycerides level, End Of Treatment Actual Change from Baseline, Mean: 0.10 mmol/L
  Triglycerides level, End Of Treatment Actual Change from Baseline, Median: 0.10 mmol/L
  Triglycerides level, End Of Treatment Actual Value, Mean: 1.53 mmol/L
  Triglycerides level, End Of Treatment Actual Value, Median: 1.40 mmol/L
post-menopausal women [2]
  total MENQOL scores: significantly improved
post-menopausal women [3]; 2.5 mg daily
  Number of patients leaving the study: 9
post-menopausal women [3]; 5 mg daily
  Number of patients leaving the study: 11
post-menopausal women [3]; 10 mg daily
  Number of patients leaving the study: 15
post-menopausal women [3]; 15 mg daily
  Number of patients leaving the study: 8

## C[C@]12CC[C@@H]3c4ccc(O)cc4CC[C@H]3[C@@H]1[C@@H](O)[C@@H](O)[C@@H]2O [E4, 1,3,5 (10)-estratrien-3,15alpha, 16alpha, 17beta-tetrol]
post-menopausal women [4]; 15 mg and 20 mg vs placebo, weeks 4 and 12 (FIG. 10)
  frequency of moderate to severe VMS: significantly decreased
post-menopausal women [4]; FIG. 11
  number of women with reduced VMS frequency (at least 50% or 75% reduction) vs placebo: higher number of women that experienced a reduced VMS frequency than placebo
[5]; given as a single dose
  dose up to which well tolerated and safe: up to 100 mg
[5]; given once daily for 28 days
  dose up to which well tolerated and safe: up to 40 mg

From patent publication US20260207623A1, “USE OF ESTETROL IN HEPATICALLY IMPAIRED PATIENTS” (ESTETRA SRL, priority 2022, published 2026)
